From article PMC6600523, “Interference with Amyloid-β Nucleation by Transient Ligand Interaction” (Molecules, 2019)
Where two headings read alike, the source gives them in different places. Where a SMILES comes first, the peptide text is derived from it. [ ]: non-standard residue; d: D form.

Columns and labels:
[1] = target: T1, FITC-Aβ42 (Homo sapiens, UniProt P05067); assay: Microscale thermophoresis, D3 titrated to FITC-Aβ42; format: binding
T1 construct: purchased Bachem M-2585.1000
Method: In detail, FITC-Aβ42 was dissolved in 20 mM sodium phosphate, 50 mM NaCl (pH 7.4—slightly alkali), 0.01% (v/v) Tw20 to obtain 80 nM stock solutions. 300 μM D3 was prepared in the same buffer. FITC-Aβ42 was then titrated with D3 solutions in 1:1 serial dilution steps to prepare 16 samples, in which the concentration of FITC-Aβ42 was kept constant at 40 nM, and the starting concentration of D3 was 150 μM. Samples were loaded into standard capillaries, and the thermophoresis was detected using a Monolith NT.115 (NanoTemper Technologies GmbH, Munich, Germany). The experiment was performed with 40% LED power and 60% microscale thermophoresis (MST) power. […] The final concentration of FITC-D3 in each sample was set to 40 nM. The LED power and MST power were adjusted to 30% and 60%, respectively. The on and off time for the IR laser was set to 30 s and 5 s. Since the working concentration of labeled molecules was rather low in this measurement, any signal loss due to surface adsorption might bias the data acquisition. Therefore trace amounts of Tw20 and PEI were used as additives in solution to minimize the unspecific surface adsorption of FITC-Aβ42 and FITC-D3 in capillaries, respectively. All measurements were conducted at 22 °C, and samples were prepared in triplicate.
The data was evaluated with PALMIST software (version 1.2.3) to obtain the dissociation constants. Changes in the normalized fluorescence ( ∆Fn ) with concentrations of the titrant were quantified and fitted with the 1:1 binding model available in the software using a 68.3% confidence interval. The graphic outputs were created using GUSSI (version 1.2.1).

[2] = target: T2, Aβ42 (Homo sapiens, UniProt P05067); assay: Seeding experiment, ThT kinetics of seeded Aβ42; format: biochemical; conditions: 20 mM sodium phosphate, 50 mM NaCl pH 7.4, 20 °C
T2 construct: purchased Bachem H-1368.1000
Method: The sample was then incubated quiescently at room temperature for 120 h. […] Samples were pipetted to a 96-well plate, with each well containing 200 μL samples. The plate was then covered with a sealing film. ThT fluorescence of all samples was recorded using the same device and parameters, as described above for ThT assays. All samples were prepared in duplicate. Final data was normalized and averaged based on the repetitions.

[3] = target: n-terminally biotinylated Aβ42 monomers; conditions: read-out: KD for D3 and Aβ42 by SPR; n-terminally biotinylated Aβ42 monomers fixed on sensor chips via biotin-streptavidin; cited from earlier work
[4] = target: T2, Aβ42; assay: ThT assay, fibrillation kinetics of Aβ42; format: biochemical; conditions: 50 mM NaCl pH 7.4, 20 °C, AmyloFit fit, triplicate
Method: ThT was added at a final concentration of 5 μM in all samples. The final volume of each sample was 200 μL. Samples were prepared on ice and were pipetted into a 96-well plate afterwards. The plate was sealed with a microplate sealing film. All measurements were conducted at 20 °C with a microplate reader (Infinite M200, Tecan, Männedorf, Switzerland). The fluorescence was recorded at an excitation wavelength (λex) of 445 nm and an emission wavelength (λem) of 485 nm every 30 min for 120 h. […] All samples were prepared in triplicate.
The ThT data was then subjected to the online server AmyloFit with a customized sigmoidal Equation (1) to determine the lag time tlag , and the half completion time of the aggregation process t1/2 , according to previous studies. (1) It=k0t+A/1+exp−kt−t1/2, where k0 represents the slope of the baseline, A is the amplitude, k denotes the apparent elongation rate constant. The lag time tlag can be derived from the intercept between the time axis and the tangent with slope k from the midpoint of the fitted sigmoidal curve, which is given by the following Equation (2):(2) tlag=t1/2−2/k

[5] = target: T2, Aβ42; assay: Sedimentation velocity AUC with fluorescence detection, Aβ42 and D3 mixtures; format: binding; conditions: 0.33 μM FITC-Aβ42 with various D3 concentrations; 55 mM Tris-HCl, 50 mM NaCl pH 7.4, 0.01% Tw20; D3 concentration-dependent
Method: All measurements were performed using an XL-A analytical ultracentrifuge (Beckman coulter, Brea, CA, USA). […] All samples were prepared in 20 mM sodium phosphate, 50 mM NaCl (pH 7.4) containing 0.0004% PEI (w/v). Samples were then loaded into 3-mm double-sector titanium cells (Nanolytics, Potsdam, Germany), with each sector containing a 100 μL sample. The detection system uses an excitation laser at 488 nm and an emission cut-off filter at 505 nm to collect fluorescence signals. The amplification factor was adjusted to the same value for all samples for comparability. […] Data was acquired at 20 nm radial resolution. After thorough thermal equilibration the centrifugation was carried out at 60,000 rpm (289,000× g) at 20 °C for 15 h. Carrier proteins, such as albumin and kappa casein, are usually recommended to minimize unspecific surface adsorption for fluorescence-based AUC [56]. All sedimentation profiles were subjected to the software package SEDFIT (version 15.01b) for data evaluation. The data was analyzed with the continuous distribution c(s) Lamm equation model to obtain the sedimentation coefficient distributions. Fitting parameters (Table S1) including the buffer density and viscosity were determined using Sednterp (version 20130813BETA). […] Final graphs were generated using GUSSI (version 1.2.1) and sedimentation coefficients were standardized to s-values in pure water at 20 °C (s20,w).

[6] = 20 μM Aβ42 with (label D3) or without (label Aβ42) 2 μM D3, 20 mM sodium phosphate, 5 μM ThT
[7] = 20 μM Aβ42 with (label D3, 10:1) or without (label Aβ42) 2 μM D3, 55 mM Tris-HCl

T1 sequence (P05067 672-713 limits assumed): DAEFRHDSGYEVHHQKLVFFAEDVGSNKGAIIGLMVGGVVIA
T2 sequence (P05067 672-713 limits assumed): as above

SMILES: CC(C)C[C@@H](NC(=O)[C@@H](CCCNC(=N)N)NC(=O)[C@H](NC(=O)[C@@H](CCCNC(=N)N)NC(=O)[C@H]1CCCN1C(=O)[C@H](N)CCCNC(=N)N)[C@H](C)O)C(=O)N[C@H](Cc1c[nH]cn1)C(=O)N[C@@H](C(=O)N[C@H](Cc1c[nH]cn1)C(=O)N[C@H](CCCNC(=N)N)C(=O)N[C@H](CC(N)=O)C(=O)N[C@H](CCCNC(=N)N)C(N)=O)[C@H](C)O [D3] (H-[dR][dP][dR][dT][dR][dL][dH][dT][dH][dR][dN][dR]-NH2)
- Kd ([1]; KD for D3 and Aβ42 (summary of both MST setups), both possible setups): ~400 nM
- Kd ([1]; MST, 40 nM FITC-Aβ42, D3 from 150 μM in 1:1 serial dilution, 20 mM sodium phosphate, 50 mM NaCl pH 7.4, 0.01% Tw20, 22 °C, 1:1 binding model (PALMIST), brackets = 68.3% confidence interval, triplicate, read-out: KD of D3 binding to FITC-Aβ42): 270 nM
- Kd ([1]; MST, 40 nM FITC-Aβ42, 5 mM sodium phosphate, 50 mM NaCl pH 7.4, 0.01% Tw20, 22 °C, 1:1 binding model, brackets = 68.3% confidence interval, read-out: KD of FITC-Aβ42 and D3 in low ionic strength buffer): 88 nM
- Effect on ThT kinetics of Aβ42 with 1% seeds ([2]; 10 μM Aβ42, 1% seeds, 1 μM D3, compared with Aβ42 without D3): longer lag phase
- Effect on ThT kinetics of Aβ42 with 5% seeds ([2]; 10 μM Aβ42, 5% seeds, 1 μM D3 (0.1-fold), slopes compared with Aβ42 with 5% seeds only): retardation of the elongation process
- Kd [3]: ~4000 nM
- Half completion time t1/2 of fibrillation kinetics [4, 6]: 79.3 ± 2.3 h
- Lag time tlag of fibrillation kinetics [4, 6]: 67.6 ± 3.8 h
- Slope k of fibrillation kinetics [4, 6]: 0.18 ± 0.07
- Half completion time t1/2 of fibrillation kinetics, Tris-HCl buffer [4, 7]: 74.5 ± 2.8 h
- Lag time tlag of fibrillation kinetics, Tris-HCl buffer [4, 7]: 59.3 ± 2.2 h
- Slope k of fibrillation kinetics, Tris-HCl buffer [4, 7]: 0.14 ± 0.04
- s20,w of new species formed on incubating D3 with FITC-Aβ42 [5]: 1.54 ± 0.11 S
